This note sets out measurements from patent US12439945B2, “Method of improving flavor of a composition of (D)-β-hydroxybutyric acid and (D)-1,3 butanediol and use as a nutritional supplement and therapeutic agent” (VitaNav, Inc., priority 2020, dated 2025).

A short description of the data set: Circulating ketone level and ketotic efficiency after administration of D-BHB, D-BHV and D-1,3BD in various ratios to subjects at rest. It is filed as in vivo, human. Particulars: based on measured plasma levels of FIG. 1. The source says: Examples include using a composition including D-BHB, D-BHV, and D-1,3BD in a subject at rest. The ketotic efficiency represents the net elevation of circulating ketones a ketone supplement affects over time in an individual. Ketotic efficiency may be represented as: Σt=0^n(mMol/L)/(g/kg)*t where mMol/L is the concentration of circulating β-hydroxybutyrate in the blood, g is the total dose of the combined D-BHB, D-BHV, and D-1,3,BD in grams, kg is the mass of the individual in kilograms, and t is an increment of time in minutes.
While this example pertains to a fasted subject at rest, the relative utility of blended vs pure constituents has also been observed in fed and active subjects.
As illustrated by the examples of FIG. 1, these exemplary compositions can advantageously elevate circulating ketones by approximately two times greater than other known compositions. Such a composition can sustain ketonemia for longer than either D-BHB or D-1,3BD can when ingested alone by a subject of a given weight as shown by the 100% line (i.e., contains D-BHB, but not D-1,3BD) and the 0% line (i.e., contains only D-1,3BD, but not D-BHB).
As shown in the following table, the increase in circulating ketone level with a 10 g dose in three human subjects at rest was maximal at between 45-55% D-BHB in the tested compositions. […]

As to `CC(O)CCO` [D-1,3BD, (D)-1,3 butanediol], the “prolonged rise of blood ketone levels” value is reported as “does not cause a prolonged rise of blood ketone levels”.
Turning to `CC(O)CC(=O)O` [D-BHB, (D)-β-hydroxybutyric acid], the “prolonged rise of blood ketone levels” value was “A similar result was obtained”.
